Laboratory results published in publication PMC6222357, “Liquid Chromatography-Tandem Mass Spectrometry Simultaneous Determination and Pharmacokinetic Study of Fourteen Alkaloid Components in Dog Plasma after Oral Administration of Corydalis bungeana Turcz Extract” (Molecules : A Journal of Synthetic Chemistry and Natural …, 2018).
Read-outs that look alike come from different tables or passages of the source.

What was measured:
[1] = Stability of the analytes in beagle plasma QC samples under different storage conditions; format: physicochemical, beagle dog; conditions: n = 6; for Stability (% RE) Long-Term: 2 weeks at −80 °C; for Stability (% RE) Short-Term: 4 h at ambient temperature; for Stability (% RE) Freeze-Thaw: three freeze (−80 °C)-thaw cycles; for Stability (% RE) Post-Preparative: 12 h after sample preparation at 4 °C
Experimental: As illustrated in Table 4. The stability of QC samples at three evaluated concentrations contained low, medium and high under different stored conditions was assessed on the basis of peak areas in comparison with freshly prepared QC sample.
(§1) The stability of the fourteen analytes in beagle dogs investigated by analyzing QC samples of each analyte at three QC levels (LQC, MQC and HQC) and each level contained six replicates. The short-term stability was assessed during storage for 4 h at ambient temperature. The long-term stability was determined after the QC samples had been stored for 2 weeks at −80 °C. The freeze-thaw stability was determined after three freeze at −80 °C and thaw cycles. and post-preparative stability was during storage for 12 h after sample preparation at 4 °C. The room temperature stability for stock solution was determined after storing the sample at 25 °C for 24 h. A series of concentrations of stability testing QC samples was gained by the calibration curve which was established from freshly prepared standard samples.

[2] = in vivo; conditions: male, beagle, dog, po, 0.12 g/kg
Experimental: (§2) The developed UHPLC-MS/MS method was employed to determine the pharmacokinetics of the fourteen components in C. bungeana after a single oral administration of 0.12 g/kg (equivalent to 1180.8 µg/kg A, 100.8 µg/kg B, 172.8 µg/kg C, 194.4 µg/kg D, 147.6 µg/kg E, 291.6 µg/kg F, 7.2 µg/kg G, 64.8 µg/kg H, 10.8 µg/kg I, 435.6 µg/kg J, 7.2 µg/kg K, 2851.2 µg/kg L, 694.8 µg/kg M, 928.8µg/kg N) to six beagle dogs. […] According to the Meeh-Rubn method, we established a final oral dosage of 0.12 g/kg in dogs. The plasma concentrations of the fourteen components at each time point were detected and the data gained from six beagle dogs were averaged.
(§3) Before the experiment, the beagle dogs were fasted for 12 h but given water during the research period. Blood (300 µL) was collected from the forelimb vein plexus at a few specific time points (0.083, 0.25, 0.5, 0.75 and 1, 2, 3, 4, 6, 8, 12, 24 h) after the oral administration of the extract of C. bungeana (0.12 g/kg). After centrifugation at 13,000 rpm for 10 min, the plasma was collected immediately and maintained at −80 °C until sample analysis.
(§4) Using a liquid-liquid extraction method, 100 µL of methanol and 50 µL of IS (bifendate) were added to a beagle dog plasma sample (100 µL) followed by vortex for 30 s. Then 3 mL of aether was accurately added and the mixture was vortexed for 60 s. After this step, the samples were put into a centrifuge (XiangYi Technologies, Changsha, Hunan, China). The organic supernatant was pipetted into clean glass tubes individually after centrifugation 3800 rpm for 6 min. The upper organic layer was removed and evaporated to dryness at 40 °C under a stream of nitrogen. The residue was then redissolved with 100 µL of mobile phase (28% acetonitrile), vortexed for 30 s and filtered by a 0.22 µm membrane. A 10 µL aliquot of the solution was injected into the UHPLC-MS/MS system for analysis.
(§5) Concentrations of fourteen alkaloids in beagle dog blood were calculated employing the Excel program (Microsoft Corp., Redmond, WA, USA). Pharmacokinetic parameters were calculated using non-compartmental methods. The elimination rate constant (Ke) was calculated employing the linear regression of the terminal points in a semi-log plot of the plasma concentration against time. The elimination half-life (t1/2) was calculated using the formula. t1/2 = 0.693/Ke(1)
(§6) The area under the blood concentration versus time curve up to the last quantifiable time point (AUC0→t) was calculated by the linear trapezoidal rule. The area under the plasma concentration –time curve to time infinity (AUC0→∞) was calculated as follows: AUC0→∞ = AUC0→t + Ct/Ke(2)
(§7) The maximum observed blood concentration (Cmax) and the time to reach maximum observed blood concentration (Tmax) were obtained directly from the concentration-time curve.

[3] = Room temperature stability of stock solution; format: physicochemical; conditions: 25 °C for 24 h, n = 6
Experimental: as §1

[4] = Pharmacokinetic study in beagle dogs after oral administration of C. bungeana extract (UHPLC-MS/MS of plasma); conditions: male, beagle, dog, plasma, po, 0.12 g/kg
Experimental: as §2, §3, §4, §5, §6, §7

[5] = parameters: method as in PMID 26805956; conditions: rat plasma, single oral administration of C. bungeana extract; cited from earlier work

Which “Stability (% RE) Long-Term” value ([1]; high QC in beagle plasma) does the source give for c1c2c(cc3c1OCO3)-c1cc3ccc4c(c3c[n+]1CC2)OCO4 [Coptisine, coptisine] here?
The value was 13.69 % RE.

What about the “Stability (% RE) Short-Term” value ([1]; high QC in beagle plasma) of the same compound?
The value was 7.57 % RE.

And the “Stability (% RE) Freeze-Thaw” value ([1]; high QC in beagle plasma)?
Its value is 12.83 % RE.

What about the “Stability (% RE) Long-Term” value ([1]; low QC in beagle plasma) of the same compound?
Its value is 5.48 % RE.

What about the “Stability (% RE) Short-Term” value ([1]; low QC in beagle plasma) of the same compound?
Its value is 10.66 % RE.

And the “Stability (% RE) Freeze-Thaw” value ([1]; low QC in beagle plasma)?
Its value is 10.21 % RE.

What about the “Stability (% RE) Long-Term” value ([1]; medium QC in beagle plasma) of the same compound?
Its value is 6.73 % RE.

And the “Stability (% RE) Short-Term” value ([1]; medium QC in beagle plasma)?
The value was −3.05 % RE.

And the “Stability (% RE) Freeze-Thaw” value ([1]; medium QC in beagle plasma)?
Its value is 8.93 % RE.

And the AUC(0-inf) [2]?
The AUC(0-inf) was 6030 ± 194 ng·h/mL.

What about the AUC(0-t) [2] of the same compound?
The AUC(0-t) was 5960 ± 205 ng·h/mL.

And the Cmax [2]?
The Cmax was 2260 ± 256 ng/mL.

And the Tmax [2]?
Its Tmax is 0.92 ± 0.13 h.

What about the half-life [2] of the same compound?
Its half-life is 2.48 ± 0.33 h.

With COc1ccc(CCNC(=O)/C=C/c2ccc(O)c(O)c2)cc1 [Z23, 7′-(3′,4′-dihydroxyphenyl)-N-[(4-methoxyphenyl)-ethyl]propena-mide] as the compound, how does the “Stability (% RE) Long-Term” value ([1]; high QC in beagle plasma) read?
Its value is 9.00 % RE.

What about the “Stability (% RE) Short-Term” value ([1]; high QC in beagle plasma) of the same compound?
Its value is 10.85 % RE.

What about the “Stability (% RE) Freeze-Thaw” value ([1]; high QC in beagle plasma) of the same compound?
The value was 12.43 % RE.

And the “Stability (% RE) Post-Preparative” value ([1]; high QC)?
Its value is −6.09 % RE.

And the “Stability (% RE) Long-Term” value ([1]; low QC in beagle plasma)?
Its value is −8.16 % RE.

What about the “Stability (% RE) Short-Term” value ([1]; low QC in beagle plasma) of the same compound?
The value was 10.52 % RE.

What about the “Stability (% RE) Freeze-Thaw” value ([1]; low QC in beagle plasma) of the same compound?
The value was 5.35 % RE.

What about the “Stability (% RE) Post-Preparative” value ([1]; low QC) of the same compound?
Its value is 12.10 % RE.

And the “Stability (% RE) Long-Term” value ([1]; medium QC in beagle plasma)?
Its value is 9.86 % RE.

And the “Stability (% RE) Short-Term” value ([1]; medium QC in beagle plasma)?
Its value is 9.94 % RE.

And the “Stability (% RE) Freeze-Thaw” value ([1]; medium QC in beagle plasma)?
The value was 12.92 % RE.

What about the “Stability (% RE) Post-Preparative” value ([1]; medium QC) of the same compound?
The value was 11.32 % RE.

And the “Stability (% RE) Room Temperature for Stock-Solution” value (from here on “Stability (% RE) Room Temperature”) ([3]; high QC level)?
The value was 2.30 % RE.

And the “Stability (% RE) Room Temperature” value ([3]; low QC level)?
The value was 3.65 % RE.

And the “Stability (% RE) Room Temperature” value ([3]; medium QC level)?
Its value is 1.64 % RE.

What about the AUC(0-inf) [4] of the same compound?
The AUC(0-inf) was 747 ± 95.2 ng·h/mL.

What about the AUC(0-t) [4] of the same compound?
The AUC(0-t) was 682 ± 74.8 ng·h/mL.

What about the Cmax [4] of the same compound?
The Cmax was 237 ± 13.7 ng/mL.

What about the Tmax [4] of the same compound?
The Tmax was 0.96 ± 0.1 h.

And the half-life [4]?
The half-life was 6.34 ± 1.21 h.

What about the Tmax [5] of the same compound?
Its Tmax is 3.71 h.

For CN1CCc2cc3c(cc2C(=O)Cc2ccc4c(c2C1)OCO4)OCO3 [Protopine, protopine], which “Stability (% RE) Long-Term” value ([1]; high QC in beagle plasma) is on record?
The value was 13.11 % RE.

What about the “Stability (% RE) Short-Term” value ([1]; high QC in beagle plasma) of the same compound?
The value was 12.18 % RE.

What about the “Stability (% RE) Freeze-Thaw” value ([1]; high QC in beagle plasma) of the same compound?
Its value is 10.26 % RE.

And the “Stability (% RE) Post-Preparative” value ([1]; high QC)?
The value was 10.57 % RE.

What about the “Stability (% RE) Long-Term” value ([1]; low QC in beagle plasma) of the same compound?
Its value is −5.39 % RE.

What about the “Stability (% RE) Short-Term” value ([1]; low QC in beagle plasma) of the same compound?
The value was 5.52 % RE.

And the “Stability (% RE) Freeze-Thaw” value ([1]; low QC in beagle plasma)?
Its value is 3.72 % RE.

What about the “Stability (% RE) Post-Preparative” value ([1]; low QC) of the same compound?
Its value is 1.65 % RE.

What about the “Stability (% RE) Long-Term” value ([1]; medium QC in beagle plasma) of the same compound?
Its value is 7.93 % RE.

What about the “Stability (% RE) Short-Term” value ([1]; medium QC in beagle plasma) of the same compound?
The value was 8.75 % RE.

And the “Stability (% RE) Freeze-Thaw” value ([1]; medium QC in beagle plasma)?
The value was 4.17 % RE.

And the “Stability (% RE) Post-Preparative” value ([1]; medium QC)?
The value was 11.35 % RE.

What about the AUC(0-inf) [4] of the same compound?
Its AUC(0-inf) is 1080 ± 136 ng·h/mL.

And the AUC(0-t) [4]?
The AUC(0-t) was 1030 ± 106 ng·h/mL.

What about the Cmax [4] of the same compound?
The Cmax was 434 ± 73.9 ng/mL.

What about the Tmax [4] of the same compound?
The Tmax was 0.88 ± 0.13 h.

And the half-life [4]?
Its half-life is 4.92 ± 1.49 h.

What about the Tmax [5] of the same compound?
The Tmax was 1.96 h.

Which “Stability (% RE) Long-Term” value ([1]; high QC in beagle plasma) does the source give for C[n+]1cc2c3c(ccc2c2ccc4cc5c(cc4c21)OCO5)OCO3 [Sanguinarine, sanguinarine] here?
The value was 11.08 % RE.

And the “Stability (% RE) Short-Term” value ([1]; high QC in beagle plasma)?
Its value is 9.29 % RE.

What about the “Stability (% RE) Freeze-Thaw” value ([1]; high QC in beagle plasma) of the same compound?
Its value is 12.22 % RE.

What about the “Stability (% RE) Post-Preparative” value ([1]; high QC) of the same compound?
The value was 10.40 % RE.

What about the “Stability (% RE) Long-Term” value ([1]; low QC in beagle plasma) of the same compound?
Its value is 13.35 % RE.

And the “Stability (% RE) Short-Term” value ([1]; low QC in beagle plasma)?
The value was 12.41 % RE.

What about the “Stability (% RE) Freeze-Thaw” value ([1]; low QC in beagle plasma) of the same compound?
The value was 11.45 % RE.

What about the “Stability (% RE) Post-Preparative” value ([1]; low QC) of the same compound?
The value was 7.77 % RE.

What about the “Stability (% RE) Long-Term” value ([1]; medium QC in beagle plasma) of the same compound?
The value was 7.46 % RE.

And the “Stability (% RE) Short-Term” value ([1]; medium QC in beagle plasma)?
The value was −5.50 % RE.

What about the “Stability (% RE) Freeze-Thaw” value ([1]; medium QC in beagle plasma) of the same compound?
Its value is 8.78 % RE.

And the “Stability (% RE) Post-Preparative” value ([1]; medium QC)?
Its value is −2.41 % RE.

What about the “Stability (% RE) Room Temperature” value ([3]; high QC level) of the same compound?
The value was −4.02 % RE.

And the “Stability (% RE) Room Temperature” value ([3]; low QC level)?
Its value is 2.48 % RE.

What about the “Stability (% RE) Room Temperature” value ([3]; medium QC level) of the same compound?
Its value is 3.20 % RE.

What about the AUC(0-inf) [2] of the same compound?
Its AUC(0-inf) is 1350 ± 109 ng·h/mL.

What about the AUC(0-t) [2] of the same compound?
Its AUC(0-t) is 1260 ± 107 ng·h/mL.

What about the Cmax [2] of the same compound?
Its Cmax is 533 ± 29.1 ng/mL.

What about the Tmax [2] of the same compound?
Its Tmax is 0.96 ± 0.1 h.

What about the half-life [2] of the same compound?
Its half-life is 5.63 ± 1.36 h.
